Patent US12492195B2, “Preparation method for and crystal form of 3-aryloxy-3-five-membered heteroaryl-propylamine compound” (Zhangzhou Pien Tze Huang Pharmaceutical Co., Ltd., priority 2020, dated 2025)
≈ marks a conversion by molar mass, not a printed value. Where two headings read alike, the source gives them in different places.

What was measured:
[1] = Hygroscopicity test by dynamic moisture absorption (DVS); assay type: physicochemical
Procedure: Dynamic moisture adsorption (DVS) analysis: the instrument is a DVS Intrinsic produced by SMS company (Surface Measurement Systems); temperature, 25° C.; carrier gas, flow rate: nitrogen, 200 ml/min; mass change per unit time: 0.002%/min: relative humidity range: 0/oRH-95% RH.
Dynamic moisture absorption (DVS) was used to test their hygroscopicity.

[2] = 24 hours
Procedure: The crystal form A of the hydrochloride salt of the compound of formula Ic-1 was tested for equilibrium solubility in water for 24 hours at room temperature. The form A was dosed with about 300 mg/mL solid feed, and magnetic stirred (750 rpm) in water for 24 hours to obtain a suspension. After centrifugation, the supernatant was filtered through a 0.22-μm PTFE membrane and then tested by HPLC, and the obtained solid was tested by XRPD.

[3] = Procedure: In the experiment, the initial dosage of crystal form A of the hydrochloride salt in H2O, SGF, and FaSSIF was about 20 mg/mL, and the initial dosage in FeSSIF was about 40 mg/mL. […] The samples were sealed and mounted on a rotating disk rotating at 25 rpm, and the rotating disk was placed in a 37° C. incubator. Samples were taken at time points 1, 4 and 24 hours of equilibration, and the filtrate was separated and tested concentration by HPLC.

SMILES: CNCC[C@@H](Oc1cccc2ccoc12)c1cccs1 [Form A]
- change in crystal form (XRPD) before and after the DVS test [1]: no change in crystal form was observed
- solubility in water (concentration of free state) ([2]; room temperature): 21 ± 0.5 mg/mL
- solubility in water converted to hydrochloride concentration ([2]; room temperature): 237.3 mg/mL (≈ 826 mM)
- solid crystal form after the equilibrium solubility test (XRPD) ([2]; water): solid crystal form did not change
- solubility ([3]; FaSSIF pH 6.5, 37° C., 1 hour): 20.2 mg/mL (≈ 70.3 mM)
- solubility ([3]; FaSSIF pH 6.5, 37° C., 4 hours): 20.7 mg/mL (≈ 72 mM)
- solubility ([3]; FaSSIF pH 6.5, 37° C., 24 hours): 20.8 mg/mL (≈ 72.4 mM)
- solubility ([3]; FeSSIF pH 5.0, 37° C., 1 hour): 32.8 mg/mL (≈ 114 mM)
- solubility ([3]; FeSSIF pH 5.0, 37° C., 4 hours): 36.8 mg/mL (≈ 128 mM)
- solubility ([3]; FeSSIF pH 5.0, 37° C., 24 hours): 39.4 mg/mL (≈ 137 mM)
- solubility ([3]; SGF pH 1.9, 37° C., 1 hour): 16.5 mg/mL (≈ 57.4 mM)
- solubility ([3]; SGF pH 1.9, 37° C., 4 hours): 14.8 mg/mL (≈ 51.5 mM)
- solubility ([3]; SGF pH 1.9, 37° C., 24 hours): 11.1 mg/mL (≈ 38.6 mM)
- solubility ([3]; Water, 37° C., 1 hour): 16.7 mg/mL (≈ 58.1 mM)
- solubility ([3]; Water, 37° C., 4 hours): 17.7 mg/mL (≈ 61.6 mM)
- solubility ([3]; Water, 37° C., 24 hours): 17.3 mg/mL (≈ 60.2 mM)
